Laboratory results from US20170071944A1, “MODULATORS OF TOLL-LIKE RECEPTORS FOR THE TREATMENT OF HIV” (Gilead Sciences, Inc., priority 2015, published 2017).

Test system: immune cell subsets in PBMC cultures from HIV-1 infected subjects on cART
Assay: Induced immune cell activation in PBMC cultures from HIV-1 infected subjects on cART (flow cytometry)
Assay type: cell-based, human
Settings: for B Cells CD69 % / B Cells CD69 Fold vs DMSO / B Cells CD80 % / B Cells CD80 Fold vs DMSO / DCs CD69 % / DCs CD69 Fold vs DMSO / DCs CD80 % / DCs CD80 Fold vs DMSO / CD4+ T Cells CD25 % / CD4+ T Cells CD25 Fold vs DMSO / CD4+ T Cells CD69 % / CD4+ T Cells CD69 Fold vs DMSO / CD4+ T Cells Perforin % / CD4+ T Cells Perforin Fold vs DMSO / CD8+ T Cells CD25 % / CD8+ T Cells CD25 Fold vs DMSO / CD8+ T Cells CD28 % / CD8+ T Cells CD28 Fold vs DMSO / CD8+ T Cells CD38 % / CD8+ T Cells CD38 Fold vs DMSO / CD8+ T Cells CD69 % / CD8+ T Cells CD69 Fold vs DMSO / Monocytes CD11c % / Monocytes CD11c Fold vs DMSO / Monocytes CD69 % / Monocytes CD69 Fold vs DMSO / Monocytes CD80 % / Monocytes CD80 Fold vs DMSO / NK Cells CD25 % / NK Cells CD25 Fold vs DMSO / NK Cells CD69 % / NK Cells CD69 Fold vs DMSO: 2 days, geometric mean; for B Cells CD69 % / B Cells CD69 Fold vs DMSO / B Cells CD80 % / B Cells CD80 Fold vs DMSO / DCs CD69 % / DCs CD69 Fold vs DMSO / DCs CD80 % / DCs CD80 Fold vs DMSO: N = 4; for CD4+ T Cells CD25 % / CD4+ T Cells CD25 Fold vs DMSO / CD4+ T Cells CD69 % / CD4+ T Cells CD69 Fold vs DMSO / CD4+ T Cells Perforin % / CD4+ T Cells Perforin Fold vs DMSO / CD8+ T Cells CD25 % / CD8+ T Cells CD25 Fold vs DMSO / CD8+ T Cells CD28 % / CD8+ T Cells CD28 Fold vs DMSO / CD8+ T Cells CD38 % / CD8+ T Cells CD38 Fold vs DMSO / CD8+ T Cells CD69 % / CD8+ T Cells CD69 Fold vs DMSO / Monocytes CD11c % / Monocytes CD11c Fold vs DMSO / Monocytes CD69 % / Monocytes CD69 Fold vs DMSO / Monocytes CD80 % / Monocytes CD80 Fold vs DMSO / NK Cells CD25 % / NK Cells CD25 Fold vs DMSO / NK Cells CD69 % / NK Cells CD69 Fold vs DMSO: N = 6
Procedure: TLR8 modulating compound affects activation of distinct cell populations, PBMCs were purified from HIV-1 infected subjects on cART, as described in Example 121 (anonymized participant IDs 184, 185, 188, 189, 190, and 191). […] After incubation, PBMCs were harvested and stained with antibodies conjugated to specific fluorophores (BD Biosciences) to delineate immune cell subsets: CD4 T cells (CD3+ CD4+ CD8-), CD8 T cells (CD3+ CD8+ CD4-), NK cells (CD3-CD56+ CD16+), monocytes (CD3-CD14+), B cells (CD3-CD19+), and peripheral dendritic cells (DCs), defined as positive for HLA-DR and negative for a panel of markers: CD3, CD14, CD16, CD19, CD20, CD56 (Lin-1 lineage panel, BD Biosciences).
Additional markers of activation, maturation, and effector function were included for cell subsets, as follows: CD4 and CD8 T cells (CD25, CD38, CD69, IFN-γ, granzyme B, perforin, TNF-α), NK cells (CD25, CD69, IFN-γ), monocytes (CD11c, CD16, CD80, CD86, CD163, TNF-α), B cells (CD40, CD69, CD80, CD86), and DC (CD11c, CD69, CD80, CD86, CD123, and CD163). Cells were stained for surface markers (CD3, CD4, CD8, CD11c, CD14, CD16, CD25, CD69, CD80, CD86, CD163), washed, treated with fixation and permeabilization buffer (eBioscience), and stained for intracellular markers (IFN-γ, granzyme B, perforin, TNF-α). Cells were evaluated by flow cytometry on a LSR Fortessa (BD Biosciences), and data was analyzed with FlowJo software (TreeStar).
Data are expressed as geometric mean percentage (%) and as geometric mean fold-activation (Fold) for each marker and for each PBMC subset obtained from 4 or 6 subjects, as indicated. Fold activation is calculated as a ratio of the % positive for each marker for each PBMC subset at the indicated concentration of the compound of Example 15 relative to % positive for DMSO treated samples. Fold activations that are 1.5 are in bold.

CCCC[C@H](CO)Nc1nc(N)nc2cccnc12 [Example 15]
B Cells CD69 % (Example 15 1000 nM): 9.1%
B Cells CD69 Fold vs DMSO (Example 15 1000 nM): 1.1 fold
B Cells CD80 % (Example 15 1000 nM): 2.2%
B Cells CD80 Fold vs DMSO (Example 15 1000 nM): 1.4 fold
DCs CD69 % (Example 15 1000 nM): 8.5%
DCs CD69 Fold vs DMSO (Example 15 1000 nM): 3.3 fold
DCs CD80 % (Example 15 1000 nM): 82.0%
DCs CD80 Fold vs DMSO (Example 15 1000 nM): 2.9 fold
CD4+ T Cells CD25 % (Example 15 1000 nM): 4.2%
CD4+ T Cells CD25 Fold vs DMSO (Example 15 1000 nM): 1.8 fold
CD4+ T Cells CD69 % (Example 15 1000 nM): 11.7%
CD4+ T Cells CD69 Fold vs DMSO (Example 15 1000 nM): 1.5 fold
CD4+ T Cells Perforin % (Example 15 1000 nM): 14.2%
CD4+ T Cells Perforin Fold vs DMSO (Example 15 1000 nM): 1.8 fold
CD8+ T Cells CD25 % (Example 15 1000 nM): 0.7%
CD8+ T Cells CD25 Fold vs DMSO (Example 15 1000 nM): 2.2 fold
CD8+ T Cells CD28 % (Example 15 1000 nM): 0.4%
CD8+ T Cells CD28 Fold vs DMSO (Example 15 1000 nM): 4.4 fold
CD8+ T Cells CD38 % (Example 15 1000 nM): 56.8%
CD8+ T Cells CD38 Fold vs DMSO (Example 15 1000 nM): 2.0 fold
CD8+ T Cells CD69 % (Example 15 1000 nM): 10.4%
CD8+ T Cells CD69 Fold vs DMSO (Example 15 1000 nM): 2.2 fold
Monocytes CD11c % (Example 15 1000 nM): 1.2%
Monocytes CD11c Fold vs DMSO (Example 15 1000 nM): 1.6 fold
Monocytes CD69 % (Example 15 1000 nM): 6.2%
Monocytes CD69 Fold vs DMSO (Example 15 1000 nM): 2.0 fold
Monocytes CD80 % (Example 15 1000 nM): 86.4%
Monocytes CD80 Fold vs DMSO (Example 15 1000 nM): 3.0 fold
NK Cells CD25 % (Example 15 1000 nM): 5.2%
NK Cells CD25 Fold vs DMSO (Example 15 1000 nM): 10.4 fold
NK Cells CD69 % (Example 15 1000 nM): 21.1%
NK Cells CD69 Fold vs DMSO (Example 15 1000 nM): 12.4 fold
B Cells CD69 % (Example 15 3000 nM): 13.6%
B Cells CD69 Fold vs DMSO (Example 15 3000 nM): 1.7 fold
B Cells CD80 % (Example 15 3000 nM): 3.0%
B Cells CD80 Fold vs DMSO (Example 15 3000 nM): 1.9 fold
DCs CD69 % (Example 15 3000 nM): 23.2%
DCs CD69 Fold vs DMSO (Example 15 3000 nM): 8.9 fold
DCs CD80 % (Example 15 3000 nM): 57.1%
DCs CD80 Fold vs DMSO (Example 15 3000 nM): 2.0 fold
CD4+ T Cells CD25 % (Example 15 3000 nM): 3.0%
CD4+ T Cells CD25 Fold vs DMSO (Example 15 3000 nM): 1.3 fold
CD4+ T Cells CD69 % (Example 15 3000 nM): 13.1%
CD4+ T Cells CD69 Fold vs DMSO (Example 15 3000 nM): 1.7 fold
CD4+ T Cells Perforin % (Example 15 3000 nM): 17.0%
CD4+ T Cells Perforin Fold vs DMSO (Example 15 3000 nM): 2.1 fold
CD8+ T Cells CD25 % (Example 15 3000 nM): 0.9%
CD8+ T Cells CD25 Fold vs DMSO (Example 15 3000 nM): 3.0 fold
CD8+ T Cells CD28 % (Example 15 3000 nM): 0.5%
CD8+ T Cells CD28 Fold vs DMSO (Example 15 3000 nM): 4.7 fold
CD8+ T Cells CD38 % (Example 15 3000 nM): 56.8%
CD8+ T Cells CD38 Fold vs DMSO (Example 15 3000 nM): 2.0 fold
CD8+ T Cells CD69 % (Example 15 3000 nM): 11.6%
CD8+ T Cells CD69 Fold vs DMSO (Example 15 3000 nM): 2.5 fold
Monocytes CD11c % (Example 15 3000 nM): 1.5%
Monocytes CD11c Fold vs DMSO (Example 15 3000 nM): 2.1 fold
Monocytes CD69 % (Example 15 3000 nM): 7.9%
Monocytes CD69 Fold vs DMSO (Example 15 3000 nM): 2.6 fold
Monocytes CD80 % (Example 15 3000 nM): 77.4%
Monocytes CD80 Fold vs DMSO (Example 15 3000 nM): 2.7 fold
NK Cells CD25 % (Example 15 3000 nM): 4.8%
NK Cells CD25 Fold vs DMSO (Example 15 3000 nM): 9.6 fold
NK Cells CD69 % (Example 15 3000 nM): 20.1%
NK Cells CD69 Fold vs DMSO (Example 15 3000 nM): 11.8 fold
Concentrations of maximal activation of NK cells (increased expression of CD25 and CD69): 1000 nM
Concentrations of maximal activation of B cells (increased expression of CD69 and CD80): 3000 nM
